Molecules are shown by their SMILES.

Data set [1] deals with SKBR3, TUBO and MDA-MB231 Cells. Put plainly: Cytotoxicity study, MTS assay. The format is cell-based. The following applies: 1 and 3 hours incubation, then 72 hours; FIG. 4. The protocol:
The anti-proliferative effects of prepared liposomes containing Dox were assessed on SKBR3, TUBO and MDA-MB231 Cells using MTS assay (Promega). For this purpose, the cells were seeded at 5000 cells/well in 96 well plates. After overnight incubation, the medium was replaced with an FCS-free medium containing 1:2 serial dilutions of liposomal Dox or free Dox for scheduled incubation times (1 and 3 hours) at 37° C. The cells were washed gently in PBS and further incubated in the free drugs medium at 37° C. for 72 hours. The viability of cells was determined using a Promega MTS kit. Then, the IC50 of formulations were calculated.
For orientation: Formazan colour is commonly taken as a measure of viable cells.

In the next data set the test system is TUBO tumor. Put plainly: In vivo chemotherapy study, TUBO tumor model. Details: species or system female BALB/c mice. The note with it: 15 mg/kg; possibly acute cardiac toxicity.

Experimental for TUBO tumor: All animal experiments were conducted in compliance with the Institutional Ethical Committee and Research Advisory Committee of Mashhad University of Medical Sciences guidelines. On day 0, female BALB/c mice, aged 4-6 weeks, were given subcutaneous injections of TUBO tumor cells (5×10^5 cells per mouse) in the right flank. On day 14, tumor bearing mice with palpable size received medication via a single tail vein injection of either dextrose 5% solution as negative control or doxorubicin at 15 mg/kg encapsulated in liposomes. Mice were weighed and tumor sizes were monitored within 60 days post-injection and the experiment was terminated for those mice that felt so unwell. Kaplain-Meier event free survival probability curve was obtained for each experimental group.

On to `COc1cccc2c1C(=O)c1c(O)c3c(c(O)c1C2=O)C[C@@](O)(C(=O)CO)C[C@@H]3O[C@H]1C[C@H](N)[C@H](O)[C@H](C)O1.Cl` [Dox, doxorubicin hydrochloride], for which the “cytotoxicity (IC50) on HER2+ cell lines SKBR3 and TUBO against HER2− cell line MDA-MB-231” value in data set [1] is “no distinguishing difference between cytotoxicity of HER2^+ and HER2^− cells”. Besides, the “survival of the group under conventional Dox treatment” value in the data set on TUBO tumor was “died in early days”.

Values taken from patent US20160045614A1, “TARGETED LIPOSOMAL COMPOSITION USING ANTI-HER-2 AFFIBODY MOLECULES AND APPLICATIONS THEREOF IN CANCER TREATMENT” (priority 2014, published 2016).
